In PubChem BioAssay AID2060332 (Molecular Pharmacology Branch, DTP, NCI, 2025):

Tested on: LG0567-F671-PDC multi-cell spheroid viability
Experiment: Anticancer human tumor LG0567-F671-PDC patient-derived lung adenocarcinoma cell line growth inhibition [IpAb]
Conditions: for IC50: curve of first compound; for viability, T/C: stronger effect = lower value
Outline: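 Combinations with ipatasertib or abemaciclib were tested on tumour spheroids holding HUVEC (25%) and MSC (15%) alongside 60% malignant cells. Top concentration was at or near clinical Cmax (10 microM if undefined), descending in half-log steps.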

[1] = second compound 0.01 µM, first compound 0.0316 µM
[2] = second compound 0.01 µM, first compound 0.1 µM
[3] = second compound 0.01 µM, first compound 0.316 µM
[4] = second compound 0.01 µM, first compound 1 µM
[5] = second compound 0.0316 µM, first compound 0.0316 µM
[6] = second compound 0.0316 µM, first compound 0.1 µM
[7] = second compound 0.0316 µM, first compound 0.316 µM
[8] = second compound 0.0316 µM, first compound 1 µM
[9] = second compound 0.1 µM, first compound 0.0316 µM
[10] = second compound 0.1 µM, first compound 0.1 µM
[11] = second compound 0.1 µM, first compound 0.316 µM
[12] = second compound 0.1 µM, first compound 1 µM
[13] = second compound 0.316 µM, first compound 0.0316 µM
[14] = second compound 0.316 µM, first compound 0.1 µM
[15] = second compound 0.316 µM, first compound 0.316 µM
[16] = second compound 0.316 µM, first compound 1 µM
[17] = second compound 1 µM, first compound 0.0316 µM
[18] = second compound 1 µM, first compound 0.1 µM
[19] = second compound 1 µM, first compound 0.316 µM
[20] = second compound 1 µM, first compound 1 µM
[21] = second compound 0.01 µM, first compound 3.16 µM
[22] = second compound 0.01 µM, first compound 10 µM
[23] = second compound 0.0316 µM, first compound 3.16 µM
[24] = second compound 0.0316 µM, first compound 10 µM
[25] = second compound 0.1 µM, first compound 3.16 µM
[26] = second compound 0.1 µM, first compound 10 µM
[27] = second compound 0.316 µM, first compound 3.16 µM
[28] = second compound 0.316 µM, first compound 10 µM
[29] = second compound 1 µM, first compound 3.16 µM
[30] = second compound 1 µM, first compound 10 µM
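Note: viability read after 7 days of drug exposure.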
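Throughout, for viability, T/C: 100% = DMSO vehicle control luminescence.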

Row | SMILES | IC50 (second compound 0.01 µM) [nM] | IC50 (second compound 0.0316 µM) [nM] | IC50 (second compound 0.1 µM) [nM] | IC50 (second compound 0.316 µM) [nM] | IC50 (second compound 1 µM) [nM] | viability, T/C [1] [%] | viability, T/C [2] [%] | viability, T/C [3] [%] | viability, T/C [4] [%] | viability, T/C [5] [%] | viability, T/C [6] [%] | viability, T/C [7] [%] | viability, T/C [8] [%] | viability, T/C [9] [%] | viability, T/C [10] [%] | viability, T/C [11] [%] | viability, T/C [12] [%] | viability, T/C [13] [%] | viability, T/C [14] [%] | viability, T/C [15] [%] | also measured
1 | COc1c(OCCCN2CCOCC2)ccc2c3n(c(=NC(=O)c4cnc(N)nc4)nc12)CCN3 + CCN1CCN(Cc2ccc(Nc3ncc(F)c(-c4cc(F)c5nc(C)n(C(C)C)c5c4)n3)nc2)CC1 | 76.5 | 60.9 | 60 | 22.8 | 73.4 | 77.5 | 41.6 | 36.5 | 31.8 | 60.5 | 43.1 | 34.5 | 17.6 | 62.5 | 40.4 | 32.5 | 26.6 | 41.6 | 33.2 | 31.5 | viability, T/C (second compound 0.01 µM, first compound 0.00316 µM): 85.5%; viability, T/C (second compound 0.01 µM, first compound 0.01 µM): 72.7%; viability, T/C (second compound 0.0316 µM, first compound 0.00316 µM): 105%; viability, T/C (second compound 0.0316 µM, first compound 0.01 µM): 74.6%; viability, T/C (second compound 0.1 µM, first compound 0.00316 µM): 73%; viability, T/C (second compound 0.1 µM, first compound 0.01 µM): 63.4%; viability, T/C (second compound 0.316 µM, first compound 0.00316 µM): 67.8%; viability, T/C (second compound 0.316 µM, first compound 0.01 µM): 74.2%; viability, T/C [16]: 20.5%; viability, T/C (second compound 1 µM, first compound 0.00316 µM): 69.7%; viability, T/C (second compound 1 µM, first compound 0.01 µM): 71.1%; viability, T/C [17]: 56%; viability, T/C [18]: 43.2%; viability, T/C [19]: 40.8%; viability, T/C [20]: 25.1%
2 | Cc1nc(NC(=O)N2CCCC2C(N)=O)sc1-c1ccnc(C(C)(C)C(F)(F)F)c1 (stereo not given) + CCN1CCN(Cc2ccc(Nc3ncc(F)c(-c4cc(F)c5nc(C)n(C(C)C)c5c4)n3)nc2)CC1 | 1080 | 658 | 387 | 181 | 481 | 80.2 | 66.6 | 56 | 54.3 | 51.6 | 75.1 | 57.4 | 44.6 | 57.4 | 56.8 | 49.2 | 46 | 55.5 | 48.1 | 53.5 | viability, T/C [21]: 43.5%; viability, T/C [22]: 32.4%; viability, T/C [23]: 41.1%; viability, T/C [24]: 33.7%; viability, T/C [25]: 34.6%; viability, T/C [26]: 27.5%; viability, T/C [16]: 41.1%; viability, T/C [27]: 35.5%; viability, T/C [28]: 29.6%; viability, T/C [17]: 49.5%; viability, T/C [18]: 63.5%; viability, T/C [19]: 55.4%; viability, T/C [20]: 40.5%; viability, T/C [29]: 42.5%; viability, T/C [30]: 38.3%
3 | Cn1nccc1Nc1nccc(-c2ccn(C(CO)c3ccc(Cl)c(F)c3)c(=O)c2)n1 (stereo not given) + CCN1CCN(Cc2ccc(Nc3ncc(F)c(-c4cc(F)c5nc(C)n(C(C)C)c5c4)n3)nc2)CC1 | 121 | 131 | 87.3 | < 31.6 | < 31.6 | 77.9 | 47.2 | 46.7 | 31.2 | 60.9 | 48.9 | 45.9 | 28 | 57.1 | 48.3 | 40.5 | 28.1 | 49.7 | 46.4 | 37.1 | viability, T/C [21]: 26.9%; viability, T/C [22]: 29.6%; viability, T/C [23]: 26.2%; viability, T/C [24]: 24.9%; viability, T/C [25]: 31.2%; viability, T/C [26]: 24.9%; viability, T/C [16]: 34%; viability, T/C [27]: 24.6%; viability, T/C [28]: 28.5%; viability, T/C [17]: 42.8%; viability, T/C [18]: 50%; viability, T/C [19]: 40.3%; viability, T/C [20]: 29.3%; viability, T/C [29]: 25.5%; viability, T/C [30]: 23.1%
